Patent US11584712B2, “Alkylamine-substituted perthiocarbamates as dual precursors to hydropersulfide and carbonyl sulfide” (The Johns Hopkins University, priority 2020, dated 2023)
Where “and” joins values, the source holds several entries; their conditions need not be identical. Equal entries are not always repeated. Entries after “also recorded” stand apart in the source; their conditions may differ.

Assays:
Assay type in all cases: physicochemical
[1] = Kinetics of RSSH release from precursors monitored by HPLC (HPE-IAM trapping); conditions: for Hydropersulfide Yield (%): precursor 100 μM, HPE-IAM 5 mM, pH 7.4 phosphate buffer with DTPA
Description: (§1) Precursors 7a-d were dissolved in DMSO to afford 10 mM stock solutions. HPE-IAM was dissolved in DMSO to obtain a 100 mM stock solution. […] This solution was pre-incubated for 10 min at 37° C. and then precursor 7a-d (30 μL, 10 mM) were independently added into the mixture. The resulting solution was incubated at 37° C. At different time points, an aliquot of 200 μL was taken and quenched with 200 μL […] solution. These samples were stored at 0° C. until HPLC analysis was performed. The sample (20 μL) was injected into a high-performance liquid chromatography (HPLC) equipped with Phenomenex C-18 reverse phase column (250 mm×4.6 mm, 5 μm). HPLC Method: mobile phase A (H2O) and mobile phase B (ACN), flow rate: 1 mL/min, run time: 20 min, the gradient elution method: 10% to 40% B from 0 to 12 min, 40% to 80% B from 12 to 20 min. The elution was monitored by a UV detector at 275 nm. A calibration curve was generated using RSS-HPE-AM 9 to quantify RSSH generation from 7a-d.
as §1, with “by a variable UV detector” for “by a UV detector”

[2] = RSSH generation in the presence of N-acetyl cysteine by UPLC-MS; conditions: NAC 500 μM, 37° C.; for Byproduct % (yield of cyclic urea 2a-d): precursor 100 μM, pH 7.4 ammonium bicarbonate buffer with DTPA
Description: […] The resulting mixture was incubated at 37° C. An aliquot (200 μL) of reaction mixture was withdrawn at specified time points and quenched with 1% formic acid (200 μL). 3-Amino-benzoic acid (50 μM) was added to each sample as internal standard prior to UPLC-MS analysis. To quantify 2a-d generated from these precursors, a calibration curve for each individual cyclic urea with known concentrations was independently generated.
[…] The resulting mixture was incubated at 37° C. An aliquot ([…]) of reaction mixture was withdrawn at specified time points and quenched with 1% formic acid (200 μL). 3-amino-benzoic acid (50 μM) was added to each sample as internal standard prior to UPLC-MS analysis. To quantify 2a-d generated from these precursors, the calibration curve of each individual cyclic urea with known concentrations was independently generated.

[3] = COS release using membrane inlet mass spectrometry (MIMS); conditions: for COS release (m/z=60 signal): precursor 50 μM, pH 7.4 phosphate buffer saline with DTPA, 37° C.
Description: (§2) COS was analyzed using a Hiden HPR-40 MIMS system with a sample cell and membrane probe that have been optimized to detect gases dissolved in aqueous solution as described previously. Cline et al., 2011. A stock solution of N-acetyl-cysteine (25 mM) was prepared in DI water. RSSH precursor stock solutions (5 mM) were prepared in DMSO. These solutions were degassed by purging with nitrogen for 10 min before COS release analysis. Typically, 20 mL phosphate buffer solution (10 mM) was added to the sample cell, degassed and purged with a continuous flow of argon for 15 min. N-acetyl cysteine (200 μL, 25 mM) and RSSH precursor (200 μL, 5 mM) were then injected using a gas tight syringe and ion current at m/z 60 (COS^+) were collected for 2 h (source pressure was approximately 1×10^−7 to 5×10^−7 Torr).
as §2, with “(COS*)” for “(COS^+)”

Compound	Hydropersulfide Yield (%) ([1]; 37° C.)	Byproduct % (yield of cyclic urea 2a-d) [2]	COS release (m/z=60 signal) ([3]; NAC 0.25 mM (5 equiv.))	rate constant k of RSSH release ([1]; pH 6.0) [min⁻¹]	first-order rate constant k of RSSH release (RSS-HPE-AM 9 generation) ([1]; pH 7.4 phosphate buffer, HPE-IAM, 37° C., HPLC)	rate constant k of RSSH release ([1]; pH 8.0) [min⁻¹]	COS release (m/z=60 signal) ([3]; without NAC)	RSSH release under acidic conditions ([2]; 7b 100 μM, pH 6.0 ammonium acetate buffer 50 mM, 12 h)	COS release in the presence of GSH compared with NAC ([3]; pH 7.4, GSH)
3-(((3-acetamido-4-methoxy-2-methyl-4-oxobutan-2-yl)disulfannecarbonyl)(methyl)amino)-N-methylpropan-1-aminium [Precursor 7c]	90% and 90 ± 1%	19.2 ± 0.5%	produce mainly COS						
CNCCN(C)C(=O)SSC(C)(C)C(NC(C)=O)C(=O)OC (stereo not drawn) [Precursor 7a, 2-(((3-acetamido-4-methoxy-2-methyl-4-oxobutan-2-yl)disulfannecarbonyl)(methyl)amino)-N-methylethan-1-aminium]	89% and 89 ± 3%	87% and 87 ± 1%	small additional increase	0.031	0.505 min⁻¹ and 0.505 ± 0.019 min⁻¹	2.58	very small increase		
COC(=O)C(NC(C)=O)C(C)(C)SSC(=O)N(C)CCN (stereo not drawn) [Precursor 7b, 2-(((3-acetamido-4-methoxy-2-methyl-4-oxobutan-2-yl)disulfannecarbonyl)(methyl)amino)ethan-1-aminium]	94 ± 1%	58% and 58 ± 0.7%	increased production of COS					still observed, albeit at a slower rate; also recorded: slow RSSH release under acidic conditions	slightly higher/faster COS release
